# Experimental data taken from article PMC6009896, “Dual targeting of cancer-related human matrix metalloproteinases and carbonic anhydrases by chiral N-(biarylsulfonyl)-phosphonic acids” (Journal of Enzyme Inhibition and Medicinal Chemistry, 2017).
# Where two headings read alike, the source gives them in different places.
# Tests used:
# [1] = biological target: Human CA II (Homo sapiens, UniProt P00918); assay: CA catalyzed CO2 hydration stopped-flow assay, CA II; details: for decrease in activity on CA II compared to the standard AAZ: versus AAZ
# Method: (§1) An applied photophysics stopped-flow instrument has been used for assaying the CA catalyzed CO2 hydration activity. […] The CO2 concentrations ranged from 1.7 to 17 mM for the determination of the kinetic parameters and inhibition constants. […] The uncatalyzed rates were determined in the same manner and subtracted from the total observed rates. Stock solutions of inhibitor (10–50 mM) were prepared in distilled-deionized water and dilutions up to 0.1 nM were done thereafter with the assay buffer.
# [2] = biological target: Human CA I (Homo sapiens, UniProt P00915); assay: CA catalyzed CO2 hydration stopped-flow assay, CA I
# Chain of Human CA I (P00915 whole entry): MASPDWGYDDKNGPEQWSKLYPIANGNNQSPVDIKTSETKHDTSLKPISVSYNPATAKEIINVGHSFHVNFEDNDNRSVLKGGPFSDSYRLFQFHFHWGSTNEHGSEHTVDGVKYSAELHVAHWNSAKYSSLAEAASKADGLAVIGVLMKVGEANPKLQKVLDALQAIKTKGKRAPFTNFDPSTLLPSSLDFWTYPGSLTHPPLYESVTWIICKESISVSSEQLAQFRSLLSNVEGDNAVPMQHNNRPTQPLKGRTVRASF
# Method: as §1
# [3] = biological target: Human CA XII (Homo sapiens, UniProt O43570); assay: CA catalyzed CO2 hydration stopped-flow assay, CA XII
# Chain of Human CA XII (O43570 25-354): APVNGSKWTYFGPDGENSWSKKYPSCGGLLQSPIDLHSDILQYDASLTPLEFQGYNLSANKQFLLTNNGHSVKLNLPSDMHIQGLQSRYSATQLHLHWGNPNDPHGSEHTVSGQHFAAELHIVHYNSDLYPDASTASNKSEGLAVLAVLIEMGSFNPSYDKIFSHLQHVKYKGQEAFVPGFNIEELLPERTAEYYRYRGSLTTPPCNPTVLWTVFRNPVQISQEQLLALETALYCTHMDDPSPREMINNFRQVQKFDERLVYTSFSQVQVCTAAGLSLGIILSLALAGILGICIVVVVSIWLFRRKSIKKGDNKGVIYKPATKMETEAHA
# Method: as §1
# [4] = test system: MMP-2; set-up: method as in PMID 17088065, PMID 16451058, PMID 19204958; details: Table 2; existing data ref 16, 17, 24; cited from earlier work
# [5] = biological target: Human CA XIV (Homo sapiens, UniProt Q9ULX7); assay: CA catalyzed CO2 hydration stopped-flow assay, CA XIV
# Chain of Human CA XIV (Q9ULX7 16-337): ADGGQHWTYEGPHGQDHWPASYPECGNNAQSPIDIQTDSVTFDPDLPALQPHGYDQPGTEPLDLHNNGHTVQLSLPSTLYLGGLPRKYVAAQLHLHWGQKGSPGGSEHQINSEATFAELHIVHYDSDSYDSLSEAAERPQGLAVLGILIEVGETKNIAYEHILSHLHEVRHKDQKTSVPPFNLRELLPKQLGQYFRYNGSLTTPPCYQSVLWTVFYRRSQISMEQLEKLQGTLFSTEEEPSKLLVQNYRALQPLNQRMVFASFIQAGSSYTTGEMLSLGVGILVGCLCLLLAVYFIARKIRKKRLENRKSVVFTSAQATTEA
# Method: as §1
# [6] = biological target: Human CA IX (Homo sapiens, UniProt Q16790); assay: CA catalyzed CO2 hydration stopped-flow assay, CA IX
# Method: as §1
# [7] = test system: MMP-8; set-up: method as in PMID 17088065, PMID 16451058, PMID 19204958; details: Table 2; existing data ref 16, 17, 24; cited from earlier work
# [8] = read-out: IC50 CA II, Table 1, human CA II, stopped-flow CO2 hydration, 15 min preincubation
# [9] = read-out: IC50 CA I, Table 1, recombinant human CA I, stopped-flow CO2 hydration, 15 min preincubation
# [10] = IC50 CA II, Table 1, human CA II, stopped-flow CO2 hydration, 15 min preincubation
# [11] = read-out: IC50 CA II, Table 2, recombinant human CA II, stopped-flow CO2 hydration
# [12] = read-out: IC50 CA XII, Table 2, recombinant human CA XII, stopped-flow CO2 hydration
# [13] = read-out: IC50 CA I, Table 2, recombinant human CA I, stopped-flow CO2 hydration
# [14] = read-out: IC50 CA XIV, Table 2, recombinant human CA XIV, stopped-flow CO2 hydration
# [15] = read-out: IC50 CA IX, Table 2, recombinant human CA IX, stopped-flow CO2 hydration
compound,measurement,setting,value
COc1ccc(-c2ccc(S(=O)(=O)CP(=O)(O)O)cc2)cc1 [Compound 4],IC50,[1]; [8],> 10 µM
same,IC50,[2]; [9],> 10 µM
O=P(O)(O)CS(=O)(=O)c1ccc(-c2cccc(Cl)c2)cc1 [Compound 6],IC50,[1]; [8],> 10 µM
same,IC50,[2]; [9],> 10 µM
O=P(O)(O)CS(=O)(=O)c1ccc(-c2ccc(C(F)(F)F)cc2)cc1 [Compound 5],IC50,[1]; [8],> 10 µM
same,IC50,[2]; [9],> 10 µM
O=C(O)CS(=O)(=O)c1ccc(-c2ccccc2)cc1 [Compound 2],inhibitory activity on CA II (in words),[1],completely devoid of activity
same,IC50,[1]; [8],> 10 µM
same,inhibitory activity on CA I (in words),[2],completely devoid of activity
same,IC50,[2]; [9],> 10 µM
"Cc1cccc(-c2ccc(S(=O)(=O)N[C@@H](C(C)C)P(=O)(O)O)cc2)c1 [(R)-13, (R)-1-[3′-methyl-biphenyl-4-sulfonylamino]-2-methylpropyl phosphonic acid]",IC50,[1]; [10],> 10 µM
same,IC50,[2],> 10 µM
O=C(CS(=O)(=O)c1ccc(-c2ccccc2)cc1)NO [Compound 3],decrease in activity on CA II compared to the standard AAZ,[1],~100 fold
same,IC50,[1]; [8],3.66 µM
same,IC50,[1]; [11],3.66 µM
same,IC50,[3]; [12],8.86 µM
same,IC50,"[2]; read-out: IC50 CA I, rounded value",8.3 µM
same,IC50,[2]; [9],8.3 µM
same,IC50,[2]; [13],8.3 µM
same,IC50,[4],0.006 µM
same,IC50,[5]; [14],8.53 µM
same,IC50,"[6]; read-out: IC50 CA IX, rounded value",0.5 µM
same,IC50,[6]; [15],0.527 µM
same,IC50,[7],0.024 µM
"COc1ccc(-c2ccc(S(=O)(=O)C(Cc3ccccc3)P(=O)(O)O)cc2)cc1 (stereo not drawn) [Compound 10, 1–(4′-methoxybiphenyl-4-sulfonyl)-2-phenylethylphosphonic acid]",IC50,[1]; [10],> 10 µM
same,IC50,"[1]; IC50 CA II, Table 2, recombinant human CA II, stopped-flow CO2 hydration",21.1 µM
same,IC50,[3],8.48 µM
same,IC50,[2],> 10 µM
same,IC50,[2]; [13],> 10 µM
same,IC50,[4],8.2 µM
same,IC50,[5],7.47 µM
same,IC50,[6],0.837 µM
"COc1ccc(-c2ccc(S(=O)(=O)N[C@@H](C(C)C)P(=O)(O)O)cc2)cc1 [(R)-15, (R)-N-(4′-methoxybiphenylsulfonyl)-phosphovaline]",decrease in activity on CA II compared to the standard AAZ,[1],~100 fold
same,IC50,[1]; [8],3.78 µM
same,IC50,[1]; [11],3.78 µM
same,IC50,[3]; [12],6.22 µM
same,IC50,[2]; [9],> 10 µM
same,IC50,[2]; [13],> 10 µM
same,IC50,[4],0.0015 µM
same,IC50,[5]; [14],1.52 µM
same,IC50,[6]; [15],0.084 µM
same,IC50,[7],0.0014 µM
O=P(O)(O)CS(=O)(=O)c1ccc(-c2cccs2)cc1 [Compound 7],IC50,[1]; [8],> 10 µM
same,IC50,[2]; [9],> 10 µM
COc1ccc(Oc2ccc(S(=O)(=O)CP(=O)(O)O)cc2)cc1 [Compound 8],IC50,[1]; [8],> 10 µM
same,IC50,[2]; [9],> 10 µM
CC(C)CC(P(=O)(O)O)S(=O)(=O)c1ccc(-c2ccccc2)cc1 (racemic) [Compound 9],IC50,[1]; [8],> 10 µM
same,IC50,[2]; [9],> 10 µM
"Cc1ccc(-c2ccc(S(=O)(=O)N[C@@H](C(C)C)P(=O)(O)O)cc2)cc1 [(R)-12, (R)-N-(4′-methylbiphenylsulfonyl)-phosphovaline]",decrease in activity on CA II compared to the standard AAZ,[1],~100 fold
same,IC50,[1]; [8],4.14 µM
same,IC50,"[1]; read-out: IC50 CA II, Table 2, CA II from Sigma",4.14 µM
same,decrease in potency on CA XII in comparison to CA IX,[3]; CA XII versus CA IX,4 fold
same,IC50,"[3]; read-out: IC50 CA XII, rounded value",0.47 µM
same,IC50,[3]; [12],0.475 µM
same,IC50,[2]; [9],> 10 µM
same,IC50,[2]; [13],> 10 µM
same,IC50,[4],0.0023 µM
same,decrease in potency on CA XIV in comparison to CA IX,[5]; CA XIV versus CA IX,4 fold
same,IC50,"[5]; read-out: IC50 CA XIV, rounded value",0.37 µM
same,IC50,[5]; [14],0.369 µM
same,IC50,[6]; [15],0.093 µM
same,IC50,[7],0.0004 µM
CC(C)(P(=O)(O)O)S(=O)(=O)c1ccc(-c2ccccc2)cc1 [Compound 11],IC50,[1]; [8],> 10 µM
same,IC50,[2]; [9],> 10 µM
O=P(O)(O)CS(=O)(=O)c1ccc(-c2ccccc2)cc1 [Compound 1],IC50,[1]; [8],> 10 µM
same,IC50,[2]; [9],> 10 µM
